Legend:
[1] = system: myocardial ischemia-reperfusion (IR) injury; experiment: Infarct size in rat model of myocardial ischemia-reperfusion (IR) injury; assay type: in vivo; conditions: 45 min ischemia, Epi 0.5 mg/kg and/or Nico 33 f× g/kg IV, repeated low dose, infarct size 48 h after IR
Experimental: The general methods for the implementation of the rat myocardial IR model are detailed elsewhere. The total time of myocardial ischemia was 45 min Dx-EPI (3 mg/kg) was mixed in saline solution and given IV via the jugular vein. Control animals received dextran saline solution injections. Infarct size was examined 48 h after IR using established procedures.
The general methods for the implementation of the rat myocardial IR model are described herein. The total time of myocardial ischemia was 45 min Treatment was administered a total of 1, 2 or 3 times. The initial dose was given15 min prior to reperfusion and then at 12 (in the case of 2× and 3× dosing) and again at 24 h (in the case of 3× dosing) after reperfusion. Epi (0.5 mg/kg) and/or Nico (33 f× g/kg) were mixed in water and given IV using the jugular vein. Control animals only received water injections. Infarct size was examined 48 h after IR using established procedures.

[2] = system: human skeletal muscle myocytes (HSKM cells); experiment: Oxygen consumption rate in primary human skeletal muscle myocytes; assay type: cell-based; conditions: 48 hours, 300 nM FCCP
Experimental: Measured endogenous rates of respiration reflect the net balance between rates of energy utilization, energy production, and mitochondrial uncoupling. This was followed by induction of resting (State 4o) respiration with the addition of 1 uM oligomycin to inhibit ATP synthase. State 4 respiration is primarily determined by the rate of proton leak across the inner mitochondrial membrane. Maximal respiration was then assessed by the addition of 300 nM FCCP, a chemical uncoupler of oxidative phosphorylation. In intact cells, this rate reflects the maximal rates of substrate oxidation and electron transport chain activity. An increase in maximal rates can reflect changes in the regulation or expression level of oxidative enzymes, electron transport chain components, or total mitochondrial mass. […] As a control, nonmitochondrial O2 consumption was measured after the addition of 100 nM rotenone and 100 nM myxothiazol to completely block the respiratory chain.
Respiration of the intact cells was measured in unbuffered DMEM containing 10 mM glucose, 10 mM pyruvate, and 2 mM glutamine. In panel A, endogenous respiration was measured on HSKM cells, followed by state 4 (resting) respiration with the addition of 1 uM oligomycin (indicated as ‘A’), and then maximal rates were measured after the addition of 300 nM FCCP, a chemical uncoupler (indicated as ‘B’). […]

[3] = system: electron transport chain proteins; experiment: Western blot of mitochondrial electron transport chain proteins in C2C12 cells; assay type: cell-based, mouse; conditions: 1 μM, 48 hours
From the text: Western blots of cell lysates were used to assess levels of mitochondrial to determine if improved respiration is due to enhanced mitochondrial biogenesis.

[4] = system: mitochondrial swelling (damage) induced by high calcium; experiment: Calcium-induced mitochondrial swelling, EPI and NICO co-treatment, isobolographic analysis; assay type: biochemical; conditions: rat left ventricle mitochondria; 33 μM CaCl2; 535 nm, 30 min
Experimental: To determine the effect that (-)-epicatechin (EPI) and nicorandil (NICO) co-treatment has on mitochondrial swelling (damage) induced by high calcium, EPI or NICO, and EPI+NICO protective effects against calcium induced mitochondrial damage (swelling), were evaluated by monitoring changes in optical density (OD, light absorbance): Hearts from male rats were excised and weighed. Left ventricles were homogenized (0.1 g/mL) in solution A (Sucrose 2M, EDTA 0.01M, Hepes 0.5M: pH=7.4), centrifuged 10 min (800×g), 4° C., the supernatant was centrifuged 10 min (8000×g), 4° C. and the pellet was re-suspended in solution B (Sucrose 2M, EDTA 0.01M, Tris 0.5M-H2PO4-50 mM: pH=7.4) and centrifuged 10 min (10000×g), 4° C. Pellet was re-suspended in 10 mL of solution C (Sucrose 2M, EDTA 0.01M, Tris 0.5M-H2PO4-50 mM, Succinate 1M: pH=7.4. 33 μM of CaCl2 was then, added in order to induce mitochondrial […] (swelling measured through absorbace changes at 535 nm, monitored continuosly during 30 min Dose-response effects on mitochondrial swelling to EPI and NICO treatment were pursued.

Row | Compound | reduction of infarct size vs. controls [1] [%] | stimulating mitochondrial function (maximal, uncoupler-stimulated respiration) [2] | expression level of the 20 kDa subunit of complex I [3] | effect on calcium-induced mitochondrial damage (swelling) [4]
1 | Oc1cc(O)c2c(c1)O[C@H](c1ccc(O)c(O)c1)[C@H](O)C2 [Epicatechin, (−)-epicatechin] | 27 | – | – | –
2 | catechin | – | active | clearly increased | –
3 | O=C(NCCO[N+](=O)[O-])c1cccnc1 [nicorandil, N-[2-(Nitroxy)ethyl]-3-pyridinecarboxamide] | 37 | active | – | can limit

From patent publication US20120095063A1, “METHODS AND COMPOSITIONS FOR TREATMENT OF ISCHEMIC CONDITIONS AND CONDITIONS RELATED TO MITOCHONDRIAL FUNCTION” (priority 2009, published 2012)
